Experimental data from ChEMBL document CHEMBL1147744, “Discovery of two novel, small-molecule inhibitors of DNA methylation” (J Med Chem, 2006).

Key:
[1] = biological target: DNA (cytosine-5)-methyltransferase 1 (Homo sapiens, UniProt P26358); assay: Inhibitory activity against DNA methyl transferase in leukemic NALM6 cells; assay type: cell-based, NALM-6
[2] = biological target: Orphan methyltransferase M.SssI (Spiroplasma monobiae, UniProt P15840); assay: Inhibition of recombinant CpG methylase M.SssI
Orphan methyltransferase M.SssI, sequence (P15840 whole entry): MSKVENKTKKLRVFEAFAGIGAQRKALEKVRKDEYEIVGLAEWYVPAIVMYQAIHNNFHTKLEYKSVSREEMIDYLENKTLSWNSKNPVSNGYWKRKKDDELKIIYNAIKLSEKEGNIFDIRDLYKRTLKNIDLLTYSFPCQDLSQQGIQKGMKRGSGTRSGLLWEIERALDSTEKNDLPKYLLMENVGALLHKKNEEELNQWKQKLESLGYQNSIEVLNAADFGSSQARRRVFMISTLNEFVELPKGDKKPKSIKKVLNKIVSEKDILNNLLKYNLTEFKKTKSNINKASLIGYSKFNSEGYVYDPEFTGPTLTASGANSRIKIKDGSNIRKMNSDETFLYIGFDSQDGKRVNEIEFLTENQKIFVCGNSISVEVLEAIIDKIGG

DNA (cytosine-5)-methyltransferase 1, sequence (P26358 whole entry): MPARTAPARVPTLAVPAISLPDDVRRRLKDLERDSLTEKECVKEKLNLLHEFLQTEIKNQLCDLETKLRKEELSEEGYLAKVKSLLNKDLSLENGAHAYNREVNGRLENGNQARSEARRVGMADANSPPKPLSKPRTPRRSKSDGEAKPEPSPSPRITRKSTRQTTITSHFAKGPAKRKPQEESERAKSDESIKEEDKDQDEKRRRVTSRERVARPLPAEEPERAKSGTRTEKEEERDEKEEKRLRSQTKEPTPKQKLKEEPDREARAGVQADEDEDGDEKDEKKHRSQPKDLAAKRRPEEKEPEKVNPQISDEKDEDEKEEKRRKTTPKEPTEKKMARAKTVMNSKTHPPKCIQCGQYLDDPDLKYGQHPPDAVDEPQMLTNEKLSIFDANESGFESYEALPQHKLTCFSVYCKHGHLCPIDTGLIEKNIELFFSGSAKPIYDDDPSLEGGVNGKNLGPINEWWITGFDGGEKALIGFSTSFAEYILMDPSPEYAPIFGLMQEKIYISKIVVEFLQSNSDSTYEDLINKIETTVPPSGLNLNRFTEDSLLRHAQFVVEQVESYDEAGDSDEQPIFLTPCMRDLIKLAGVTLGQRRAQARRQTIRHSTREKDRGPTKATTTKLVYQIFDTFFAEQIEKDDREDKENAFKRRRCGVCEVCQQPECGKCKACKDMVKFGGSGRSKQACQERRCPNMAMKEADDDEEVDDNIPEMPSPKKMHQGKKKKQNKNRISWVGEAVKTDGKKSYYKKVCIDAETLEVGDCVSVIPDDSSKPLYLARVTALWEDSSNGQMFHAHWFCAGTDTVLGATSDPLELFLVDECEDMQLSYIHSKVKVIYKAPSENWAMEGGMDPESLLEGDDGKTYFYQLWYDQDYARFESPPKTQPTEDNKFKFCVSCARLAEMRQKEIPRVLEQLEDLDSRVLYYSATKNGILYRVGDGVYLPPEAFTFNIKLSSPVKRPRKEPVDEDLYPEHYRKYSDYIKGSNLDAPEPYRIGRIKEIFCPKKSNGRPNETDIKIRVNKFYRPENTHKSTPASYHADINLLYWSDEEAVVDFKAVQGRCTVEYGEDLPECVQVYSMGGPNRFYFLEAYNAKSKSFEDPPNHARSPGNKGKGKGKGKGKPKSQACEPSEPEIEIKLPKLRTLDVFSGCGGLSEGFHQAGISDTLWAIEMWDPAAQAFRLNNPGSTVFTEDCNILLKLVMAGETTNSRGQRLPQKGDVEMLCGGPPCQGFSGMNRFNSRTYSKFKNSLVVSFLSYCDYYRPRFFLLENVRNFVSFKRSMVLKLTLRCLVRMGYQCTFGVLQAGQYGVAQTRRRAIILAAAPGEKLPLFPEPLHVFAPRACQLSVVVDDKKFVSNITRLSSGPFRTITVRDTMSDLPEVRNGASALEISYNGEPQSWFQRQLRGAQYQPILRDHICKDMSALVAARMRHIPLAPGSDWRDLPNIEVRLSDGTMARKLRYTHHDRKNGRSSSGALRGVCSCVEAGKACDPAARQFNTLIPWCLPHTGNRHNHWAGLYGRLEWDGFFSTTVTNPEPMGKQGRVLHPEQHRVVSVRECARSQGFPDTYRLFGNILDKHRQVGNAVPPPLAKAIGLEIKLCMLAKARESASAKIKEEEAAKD

IC50 [1]	IC50 [2]	Structure (SMILES)
100 µM	0.4 µM	Cc1ccn2c(CCc3nnc4cc(C)ccn34)nnc2c1
50 µM	0.6 µM	O=C(O)C(Cc1c[nH]c2ccccc12)N1C(=O)c2ccccc2C1=O (centres undefined)
